Measurements taken from PMC11596599, “Structure Characterization of Four New Sesquiterpene Pyridine Alkaloids from Tripterygium wilfordii Hook. f. and Anti-Inflammatory Activity Evaluations” (Molecules, 2024).
“Also recorded” adds a separate entry of the source. Read-outs that look alike come from different tables or passages of the source.

Key:
nitric oxide generation = details: cited from earlier work; for IC50: LPS induced RAW264.7 cells ref 24, read-out: IC50 (nitric oxide inhibitory effects); for suppressed nitric oxide generation: LPS induced RAW264.7 cells, concentration of 5 μM ref 23
NF-κB pathway [1] = experiment: NF-κB luciferase reporter assay in LPS-induced HEK293/NF-κB-Luc cells; assay type: cell-based; details: for inhibition at 100 µM / IC50: Homo sapiens; for inhibition at 100 µM: HEK293, 24 h, read-out: NF-κB Inhibitory Rates (%) (n = 3); for IC50: read-out: IC50 (NF-κB inhibition)
Experimental: Anti-inflammation bioassays were carried out using the HEK293/NF-κB-Luc cells, which were produced as the described procedure. The HEK293/NF-κB-Luc cells were inoculated into 48-well plates and cultured in DMEM supplemented with 10% fetal bovine serum (FBS) for 16 h. Following treatment with the tested compounds, the cells were simulated with 1 μg/mL of LPS for a duration of 24 h. Then, the cells were rinsed twice with phosphate-buffered saline (PBS, pH 7.4) prior to lysing with passive lysis buffer. Then, the inhibitory effects on NF-κB were analyzed using the luciferase assay system according to the manufacturer’s instructions. All the experiments were performed in triplicate.

[2] = Cell viability by CCK-8 method; assay type: cell-based; details: human; HEK293 cells, CCK-8, compounds at 100 μM, 48 h; read-out: Cell Viability (%) (n = 3)
Experimental: (§1) The effect of the test compounds on the viability of HEK293 cells was determined by the CCK-8 method. Briefly, HEK293 cells were inoculated into 96-well plates with 5 × 10^3 cells per well and incubated at 37 °C with 5% CO2 for 24 h. The cells were treated with test compounds and incubated for 48 h; then, 20 μL of the CCK-8 reagent was added into each well and incubated for another 2 h. The absorbance at 450 nm was measured with a microplate reader to further calculate the cell viability. All experiments were performed in triplicate.

HEK293 cells = experiment: Cell viability by CCK-8 method; assay type: cell-based; details: concentration of 100 μM
Experimental: as §1

[3] = system: cytokines (TNF-α, IL-1β, IL-8, IL-2, IL-4, and IFN-γ); set-up: method as in PMID 11374948; details: 10 μg/mL, IL-8, IL-2, IL-4, IFN-γ, inhibitory rates reaching 100% in some cases ref 25; cited from earlier work
NF-κB pathway [4] = system: NF-κB pathway; set-up: method as in PMID 36364101; details: LPS-induced HEK293/NF-κB-Luc cells; previous study ref 26; read-out: IC50 (inhibitory activity on the NF-κB pathway); cited from earlier work
[5] = compounds at 100 μM, 1 μg/mL LPS 24 h

In the case of `CC(=O)OC[C@]12[C@H](OC(C)=O)C(=O)[C@@H]3[C@@H](OC(C)=O)[C@@]14O[C@@]3(C)COC(=O)c1cccnc1CCC(C)(OC(C)=O)C(=O)O[C@@H]([C@H](OC(=O)c1ccoc1)[C@@H]2OC(C)=O)[C@]4(C)O` (stereo partly shown) [9′-O-acetyl-7-deacetoxy-7-oxowilfortrine], the IC50 (nitric oxide generation) is given as 2.59 ± 3.59 µM.

Molecule `CC(=O)OCC12C(OC(C)=O)C(OC(C)=O)C3C(OC(C)=O)C14OC3(C)COC(=O)c1cnccc1CCC(C)(O)C(=O)OC(C(OC(=O)c1ccco1)C2OC(C)=O)C4(C)O` (stereo not shown) [Compound 2, wilfordinine H] has an inhibition at 100 µM (NF-κB pathway [1]; [5]) of 33.9 ± 2.06% and a viability at 48 h, 100 µM [2] of 94.2 ± 5.75%.

In the case of `CC(=O)OCC12C(OC(C)=O)C(O)C3OC(=O)C(C)C(C)c4ccncc4C(=O)OCC4(C)OC1(C(O)C4C(OC(C)=O)C2OC(C)=O)C3(C)O` (stereo not drawn) [Compound 4, 1β,7β,8β,11-tetraacetoxy-1β,4α,5α-trihydroxy-3α,15-[2′,3′-dimethyl-3′-(3″-carboxy-4″-pyridyl)propanic acid] dicarbolactone dihydro-β-agarofuran], the inhibition at 100 µM (NF-κB pathway [1]; [5]) is reported as greater than 45%, the IC50 (NF-κB pathway [1]) is reported as 1.64 µM and the viability at 48 h, 100 µM [2] is reported as 100 ± 2.55%. For the same molecule, the “influence on cell viability (in words)” value (HEK293 cells) was “no influence on the cell viability; also recorded: no cytotoxicity”.

In the case of `CC(=O)OC[C@]12[C@H](OC(C)=O)[C@H](OC(C)=O)[C@@H]3[C@@H](OC(C)=O)[C@@]14O[C@@]3(C)COC(=O)c1cnccc1C(C)C(C)C(=O)O[C@@H]([C@H](O)[C@@H]2OC(C)=O)[C@]4(C)O` (stereo partly shown) [Compound 6, wilfordinine A], the inhibition at 100 µM (NF-κB pathway [1]; [5]) is given as greater than 45%, the IC50 (NF-κB pathway [1]) is given as 9.05 µM and the “suppressed nitric oxide generation” value (nitric oxide generation) is given as 59.0%. The viability at 48 h, 100 µM [2] was 92.4 ± 7.62% and the “influence on cell viability (in words)” value (HEK293 cells) was “no influence on the cell viability; also recorded: no cytotoxicity”.

In the case of `CC(=O)OCC12C(OC(C)=O)C(OC(C)=O)C3C(OC(C)=O)C14OC3(C)COC(=O)c1cnccc1C(C)C(C)(O)C(=O)OC(C(OC(C)=O)C2OC(C)=O)C4(C)O` (stereo not shown) [Compound 7, wilfordinine B], the inhibition at 100 µM (NF-κB pathway [1]; [5]) is reported as 32.1 ± 5.7% and the viability at 48 h, 100 µM [2] is reported as 95 ± 36.2%.

For `CC(=O)OCC12C(OC(C)=O)C(OC(C)=O)C3C(OC(C)=O)C14OC3(C)COC(=O)c1cnccc1C(C)C(C)C(=O)OC(C(OC(C)=O)C2OC(C)=O)C4(C)O` (stereo not shown) [Compound 8, peritassine A], the inhibition at 100 µM (NF-κB pathway [1]; [5]) is listed as 19.1 ± 3.2%, the “suppressed nitric oxide generation” value (nitric oxide generation) is listed as 8.2% and the viability at 48 h, 100 µM [2] is listed as 93.9 ± 6.1%.

In the case of `Cc1ccc(NCCCc2ccccc2)c(N)c1` [JSH23, reference compound], the “NF-κB Inhibitory Rates (%) (n = 3)” value (NF-κB pathway [1]; [5]) is reported as 74.56 ± 1.83%.

In the case of `CC(=O)OC[C@]12[C@H](OC(C)=O)[C@H](OC(C)=O)[C@@H]3[C@@H](OC(=O)c4ccccc4)[C@@]14O[C@@]3(C)COC(=O)c1cccnc1C(C)C(C)C(=O)O[C@@H]([C@H](OC(C)=O)[C@@H]2OC(C)=O)[C@]4(C)O` (stereo partly shown) [congorinine E-1], the “inhibitory effects on the production of cytokines (in words)” value [3] is listed as “significant inhibitory effects”.

In the case of `CC(=O)OC[C@]12[C@H](OC(C)=O)[C@H](OC(C)=O)[C@@H]3[C@@H](OC(=O)c4ccccc4)[C@@]14O[C@@]3(C)COC(=O)c1cccnc1C(C)C(C)C(=O)O[C@@H]([C@H](OC(C)=O)[C@@H]2OC(=O)c1ccccc1)[C@]4(C)O` (stereo partly shown) [ebenifoline E-11], the “inhibitory effects on the production of cytokines (in words)” value [3] is listed as “significant inhibitory effects”.

For `CC(=O)OC[C@]12[C@H](OC(C)=O)[C@H](OC(C)=O)[C@@H]3[C@@H](OC(C)=O)[C@@]14O[C@@]3(C)COC(=O)c1cccnc1CCC(C)C(=O)O[C@@H]([C@H](OC(C)=O)[C@@H]2OC(C)=O)[C@]4(C)O` (stereo partly shown) [euonine], the “suppressed nitric oxide generation” value (nitric oxide generation) is listed as 54.7%.

In the case of `CC(=O)OC[C@]12[C@H](OC(C)=O)[C@H](OC(C)=O)[C@@H]3[C@@H](OC(C)=O)[C@@]14O[C@@]3(C)COC(=O)c1cccnc1CCC(C)(O)C(=O)O[C@@H]([C@H](O)[C@@H]2OC(C)=O)[C@@]4(C)O` (stereo partly shown) [tripfordine A], the IC50 (NF-κB pathway [4]) is listed as 0.74 µM.

For `CC(=O)OCC12C(OC(C)=O)C(=O)C3C(OC(C)=O)C14OC3(C)COC(=O)c1cccnc1CCC(C)(OC(=O)c1ccoc1)C(=O)OC(C(O)C2OC(C)=O)C4(C)O` (stereo not shown) [tripterygiumine S], the IC50 (nitric oxide generation) is given as 23.8 ± 4.38 µM.

In the case of `CC(=O)OC[C@]12[C@H](OC(C)=O)[C@H](OC(C)=O)[C@@H]3[C@@H](OC(C)=O)[C@@]14O[C@@]3(C)COC(=O)c1cccnc1CCC(C)C(=O)O[C@@H]([C@H](OC(=O)c1ccccc1)[C@@H]2OC(C)=O)[C@]4(C)O` (stereo partly shown) [wilforine], the IC50 (NF-κB pathway [4]) is listed as 15.7 µM.

For wilfordatine E, the IC50 (NF-κB pathway [4]) is listed as 8.75 µM.
